# Assay results taken from patent publication US20240182561A1, “CALCIUM VOLTAGE-GATED CHANNEL AUXILIARY SUBUNIT GAMMA 1 (CACNG1) BINDING PROTEINS AND CACNG1-MEDIATED DELIVERY TO SKELETAL MUSCLE” (Regeneron Pharmaceuticals, Inc., priority 2022, published 2024).
# How the values were obtained:
# HEK293 = test: Indirect (secondary) cell killing assay; format: cell-based, human; conditions: Table 11-3; maximum % kill
# Excerpt: To test the ability of anti-CACNG1 antibodies described herein to bind, internalize, and deliver payloads, cell binding and indirect cell killing assays were developed with primary human skeletal myoblasts (Cook Myosite Cat #SkMDC SK-1111), C2C12 mouse myoblasts (ATCC Cat #CRL-1772), and HEK293 cells engineered to express human and mouse CACNG1 (HEK293/hCACNG1 and HEK293/mCACNG1, respectively). To generate the HEK293/hCACNG1 and HEK293/mCACNG1 cell lines, FuGEGE 6 (Promega, Cat #E2691/5/3) was used to transfect HEK293HZ cells with a human CACNG1 (hCACNG1; amino acid M1-H222, Accession #NP_000718.1) or mouse CACNG1 (mCACNG1; amino acid M1-H223, Accession #NP_031608.1) expression vector. HEK293HZ is a highly transfectable subclone of HEK293 cells (1) authenticated via STIR (short tandem repeat) profiling to be 81% identical to HEK293 cells sourced from ATCC). […]
# (§1) An indirect cell killing assay was used to assess the ability of anti-CACNG1 antibodies to internalize and deliver payloads into cells. In vitro cytotoxicity of the anti-CACNG1 antibodies alone or in combination with Fab anti-human Fc or Fab anti-mouse Fc secondary antibodies conjugated to Duocarmycin DM (Moradec, Cat #AH-202-DD-50 or Cat #AM-202-DD-50) were evaluated using the CellTiter-Glo 2.0 Assay Kit (Promega, Cat #G9243), in which the quantity of ATP present is used to determine the number of viable cells in culture. […]
# HEK293/mCACNG1 = molecular target: T1, HEK293/mCACNG1 (Mus musculus, UniProt O70578); test: Indirect (secondary) cell killing assay; format: cell-based; conditions: Table 11-3; maximum % kill
# T1 construct: mouse CACNG1 (mCACNG1); expressed in transfected cells
# T1 sequence (O70578 1-223): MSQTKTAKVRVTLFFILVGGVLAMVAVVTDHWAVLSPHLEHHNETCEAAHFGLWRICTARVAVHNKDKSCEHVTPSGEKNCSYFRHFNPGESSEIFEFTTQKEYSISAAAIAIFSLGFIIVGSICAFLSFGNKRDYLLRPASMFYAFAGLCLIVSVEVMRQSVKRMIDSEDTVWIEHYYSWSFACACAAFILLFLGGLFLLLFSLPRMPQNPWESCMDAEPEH
# Excerpt: (§2) To test the ability of anti-CACNG1 antibodies described herein to bind, internalize, and deliver payloads, cell binding and indirect cell killing assays were developed with primary human skeletal myoblasts (Cook Myosite Cat #SkMDC SK-1111), C2C12 mouse myoblasts (ATCC Cat #CRL-1772), and HEK293 cells engineered to express human and mouse CACNG1 (HEK293/hCACNG1 and HEK293/mCACNG1, respectively). To generate the HEK293/hCACNG1 and HEK293/mCACNG1 cell lines, FuGEGE 6 (Promega, Cat #E2691/5/3) was used to transfect HEK293HZ cells with a human CACNG1 (hCACNG1; amino acid M1-H222, Accession #NP_000718.1) or mouse CACNG1 (mCACNG1; amino acid M1-H223, Accession #NP_031608.1) expression vector. HEK293HZ is a highly transfectable subclone of HEK293 cells (1) authenticated via STIR (short tandem repeat) profiling to be 81% identical to HEK293 cells sourced from ATCC). The HEK293HZ cell line was maintained in DMEM+10% FBS+1% L-glutamine/penicillin/streptomycin, while HEK293/hCACNG1 and HEK293/mCACNG1 cell lines were maintained in DMEM+10% FBS+1% L-glutamine/penicillin/streptomycin+500 ug/mL G418. Human skeletal myoblasts (HuSKM) were maintained in MyoTonic Basal Media (Cook Myosite Cat #MB-2222) supplemented with MyoTonic Growth Supplement (Cook Myosite Cat #MS-3333) and grown in a 37° C. incubator with 5% CO2. HuSKM were seeded in collagen-coated 96-well plates (Greiner Bio-One #655956) at 8,500 cells/well and grown for 24 hours. The growth media was changed to MyoTonic Differentiation Media (Cook Myosite Cat #MD-5555) and replaced every 2 days. Myotubes were assayed after 6 days of differentiation. C2C12 mouse myoblasts were maintained in DMEM with 10% FBS and 1% penicillin-streptomycin supplement and grown in a 37° C. incubator with 5% CO2. C2C12 cells were seeded in collagen-coated 96-well plates (Greiner Bio-One #655956) at 10,000 cells/well for the cell binding assay and 5,000 cells/well for the cell killing assay. After 24 hours, growth media was replaced with differentiation media (DMEM with 2% horse serum) and placed in a 37° C. incubator with 7.5% CO2. C2C12 myotubes were assayed after 3 days of differentiation. […]
# as §1
# [1] = tested on: primary human skeletal myotubes (HuSKM); test: Indirect (secondary) cell killing assay; format: cell-based; conditions: Table 11-3; maximum % kill
# Excerpt: as §2, §1
# HEK293/hCACNG1 = molecular target: T2, HEK293/hCACNG1 (Homo sapiens, UniProt Q06432); test: Indirect (secondary) cell killing assay; format: cell-based; conditions: Table 11-3; maximum % kill = 100 - minimum percent viability
# T2 construct: human CACNG1 (hCACNG1); expressed in transfected cells
# Excerpt: as §2, §1
# mouse myotubes (C2C12) = test: Indirect (secondary) cell killing assay; format: cell-based; conditions: Table 11-3; maximum % kill
# Excerpt: as §2, §1
# Dmpk = test: In vivo siRNA durability of Dmpk knockdown; design: species or system mouse; conditions: 1 week post treatment, 3 and 5 mg/kg siRNA; FIGS. 13A-13E
# Method: All doses were adjusted for drug-to-antibody (DAR) ratio, i.e., mice were dosed based on siRNA amount for body weight, as determined by liquid chromatography electrospray ionization approaches described herein. […] Mice were sacrificed at either 1 week, 3 weeks, or 6 weeks post dosing. […] The following tissues were placed into RNAlater (ThermoFisher Catalog #AM7021): gastrocnemius, soleus, quadricep, tibialis anterior, diaphragm, heart, liver, spleen, kidney. Tissues were allowed to sit in RNAlater for at least 2 hours at room temperature before being transferred to −20° C. Total RNA was purified using MagMAX™-96 for Microarrays Total RNA Isolation Kit Catalog #AM1839 (Ambion by Life Technologies) according to manufacturer's specifications. […] Samples were then reverse transcribed using SuperScript VILO MasterMix (Invitrogen Catalog #11755-250) according to manufacturer's specifications. For TaqMan gene expression analysis, TaqMan Gene Expression MasterMix (ThermoFisher Scientific Ref #4369016) was used according to manufacturer's specifications. The probes used in the assay were as followed: Dmpk FAM (ThermoFisher Mm00446261_m1) and Rplp0 (ThermoFisher Mm01974474_gH).
# T2 sequence (Q06432 whole entry): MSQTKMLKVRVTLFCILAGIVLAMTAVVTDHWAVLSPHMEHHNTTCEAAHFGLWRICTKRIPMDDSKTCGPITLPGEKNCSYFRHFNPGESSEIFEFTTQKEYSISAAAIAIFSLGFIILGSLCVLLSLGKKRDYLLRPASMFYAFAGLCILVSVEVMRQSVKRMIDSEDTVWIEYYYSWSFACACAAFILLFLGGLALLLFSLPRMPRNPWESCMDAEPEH
Molecule,% KILL (HEK293),% KILL (HEK293/mCACNG1),% KILL [1],% KILL (HEK293/hCACNG1),% KILL (mouse myotubes (C2C12)),Dmpk knockdown in skeletal muscle (Dmpk)
COC(=O)c1cc2c([nH]1)C(=O)C=C1N(C(=O)c3cc4cc(OC)c(OC)c(OC)c4[nH]3)C[C@H]3C[C@]123 [Duocarmycin],99.6%,99.8%,97.3%,99.7%,99.6%,–
"naked siRNA: siRNA against DMPK (siRNA1), SEQ ID NO: 416 sense and 417 antisense, used unconjugated as control (sense CCUCGGUAUUUAUUGUCUA; antisense UAGACAAUAAAUACCGAGG; listed as RNA, further chemistry not given here)",–,–,–,–,–,no noticeable knockdown
